# From PubChem BioAssay (NCI)
#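 The compound was tested at five concentrations on cells cultured in 96-well plates, with a 48-hour exposure period. TGI is the concentration that stops growth completely.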
# How the values were obtained:
# Assay in all cases: NCI-60 cell line screen, 48 h
# [1] = tested on: LOX IMVI melanoma
# [2] = tested on: A498 renal
# [3] = tested on: DU-145 prostate
# [4] = tested on: NCI-H226 lung
# [5] = tested on: NCI-H522 lung
# [6] = tested on: TK-10 renal
# [7] = tested on: 786-0 renal
# [8] = tested on: HCT-15 colon
# [9] = tested on: HOP-92 NSCLC
# [10] = tested on: M14 melanoma
# [11] = tested on: MCF7 breast
# [12] = tested on: UACC-257 melanoma
# [13] = tested on: OVCAR-3 ovarian
# [14] = tested on: COLO 205 colon
# [15] = tested on: SK-MEL-2 melanoma
# [16] = tested on: CAKI-1 renal
Structure (SMILES),TGI [1],TGI [2],TGI [3],TGI [4],TGI [5],TGI [6],TGI [7],TGI [8],TGI [9],TGI [10],TGI [11],TGI [12],TGI [13],TGI [14],TGI [15],TGI [16]
COc1cc(/C=N/NC2=NCCCCN2)ccc1O,> 100 µM,> 100 µM,> 100 µM,> 100 µM,> 100 µM,> 100 µM,> 100 µM,> 100 µM,> 100 µM,> 100 µM,> 100 µM,> 100 µM,> 100 µM,> 100 µM,> 100 µM,
CC(O)[C@@]1(c2ccccc2)CC2(CCN(C)CC2)O[C@H]1C (some centres undefined),> 100 µM,> 100 µM,> 100 µM,> 100 µM,> 100 µM,> 100 µM,> 100 µM,> 100 µM,> 100 µM,> 100 µM,> 100 µM,> 100 µM,> 100 µM,> 100 µM,> 100 µM,> 100 µM
O=C1CC2SC(COCc3ccccc3)(CCN2Cc2ccccc2)C1 (centres undefined),> 100 µM,> 100 µM,> 100 µM,> 100 µM,> 100 µM,76.3 µM,> 100 µM,> 100 µM,> 100 µM,> 100 µM,81.9 µM,> 100 µM,> 100 µM,> 100 µM,> 100 µM,> 100 µM
CCOC(=O)C(Cc1ccc(N(CCCl)CCCl)cc1)NC(=O)CCCN1C(=O)CN=C(c2ccccc2)c2cc(Cl)ccc21 (centres undefined),8.99 µM,> 100 µM,> 64.7 µM,97 µM,13.2 µM,> 100 µM,> 77.5 µM,> 100 µM,8.85 µM,22.3 µM,> 100 µM,8.31 µM,5.32 µM,37.8 µM,29.9 µM,> 55.7 µM
CC1CN=C(Nc2ccc(F)c(Cl)c2)S1 (centres undefined),> 100 µM,> 100 µM,> 100 µM,> 100 µM,> 100 µM,> 100 µM,> 100 µM,> 100 µM,> 100 µM,> 100 µM,> 100 µM,> 100 µM,> 100 µM,> 100 µM,> 100 µM,> 100 µM
C1CN2CCNCCN(CCN1)CC2,> 100 µM,> 100 µM,> 100 µM,> 100 µM,> 100 µM,> 100 µM,> 100 µM,> 100 µM,> 100 µM,> 100 µM,> 100 µM,> 100 µM,> 100 µM,> 100 µM,> 100 µM,> 100 µM
COc1cc2ccc1OCc1cccc(n1)COc1ccc(cc1OC)C=NCCNCCN=C2,> 100 µM,> 100 µM,> 100 µM,> 100 µM,> 100 µM,> 100 µM,> 100 µM,> 100 µM,> 100 µM,> 100 µM,> 100 µM,> 100 µM,> 100 µM,> 100 µM,> 100 µM,> 100 µM
O=C1c2ccccc2C(=O)c2c(NCCCN3CCOCC3)ccc(NCCCN3CCOCC3)c21,3.61 µM,25.2 µM,52.6 µM,31.5 µM,2.35 µM,39.1 µM,16.7 µM,> 100 µM,15.9 µM,10.1 µM,24.4 µM,9.91 µM,40.3 µM,,25.5 µM,32 µM
Cc1ccc(N2C(N)=C(C#N)C(C#N)(C#N)C2c2ccccc2)cc1 (centres undefined),23.9 µM,35.7 µM,28.2 µM,38.9 µM,21.5 µM,28 µM,30.3 µM,22.6 µM,21.8 µM,30.5 µM,18.8 µM,30.4 µM,27.4 µM,24 µM,38.2 µM,30.9 µM
C#CC1NC(=O)C1N(CC)CC (centres undefined),> 100 µM,> 100 µM,> 100 µM,> 100 µM,> 100 µM,> 100 µM,> 100 µM,> 100 µM,> 100 µM,> 100 µM,> 100 µM,> 100 µM,> 100 µM,> 100 µM,> 100 µM,> 100 µM
O=Nc1c(O)cc(Nc2cccnc2)c2ccccc12,> 100 µM,> 100 µM,> 100 µM,> 100 µM,28 µM,> 100 µM,> 100 µM,64.1 µM,68 µM,> 100 µM,> 100 µM,> 100 µM,11.8 µM,42.5 µM,> 100 µM,> 100 µM
COC1=CC(=O)C2=C(C[C@@]3(C)C(=C2)C(CO)=CC[C@H]3O)C1=O,38.9 µM,> 100 µM,> 100 µM,29.2 µM,,> 100 µM,38.1 µM,88.5 µM,24.5 µM,44.2 µM,32.3 µM,36.9 µM,56.2 µM,65.9 µM,,> 100 µM
Nc1nc(=S)n(-c2ccc(Cl)cc2)c2nc3ccccc3cc12,> 100 µM,> 100 µM,> 100 µM,> 100 µM,> 100 µM,98.3 µM,> 100 µM,> 100 µM,83.7 µM,> 100 µM,> 100 µM,> 100 µM,> 100 µM,> 100 µM,> 100 µM,> 100 µM
COc1ccc(/C=C/C(=O)c2ccc(OC(=O)/C=C/c3ccccc3)cc2)cc1,> 100 µM,> 73.4 µM,> 74.2 µM,> 100 µM,54.7 µM,> 100 µM,52.8 µM,> 100 µM,> 100 µM,> 100 µM,> 100 µM,> 100 µM,> 100 µM,> 71.6 µM,> 100 µM,> 69.2 µM
COc1cc2c[n+](C)c3c(c2cc1OC)Cc1cc2c(cc1-3)OCO2,> 100 µM,> 100 µM,> 100 µM,> 100 µM,> 100 µM,> 100 µM,> 100 µM,> 100 µM,> 100 µM,> 100 µM,> 100 µM,> 100 µM,> 100 µM,> 100 µM,> 100 µM,> 100 µM
[N-]=[N+]=CC(=O)CCC(=O)N(c1ccccc1)c1ccccc1,> 10 µM,> 10 µM,> 10 µM,> 10 µM,,> 10 µM,> 10 µM,> 10 µM,> 10 µM,> 10 µM,> 10 µM,> 10 µM,> 10 µM,,> 10 µM,
CC(=O)OCC1OC(n2nc(Cc3ccccc3)c(=S)[nH]c2=S)C(OC(C)=O)C(OC(C)=O)C1OC(C)=O (centres undefined),41.9 µM,> 100 µM,64.3 µM,> 100 µM,47.5 µM,> 100 µM,> 100 µM,40.5 µM,40.6 µM,38.1 µM,72.7 µM,37.8 µM,41.2 µM,> 100 µM,35.1 µM,> 100 µM
CCCCc1c2c(c(C)c3c1C(=O)OC3)Oc1ccccc1O2,> 100 µM,> 46.5 µM,> 43.8 µM,> 81.1 µM,1.15 µM,> 71.3 µM,> 36.9 µM,> 100 µM,> 100 µM,> 100 µM,> 100 µM,96.9 µM,1.51 µM,7.69 µM,> 33.7 µM,> 100 µM
CC1(C)C2CCC(O)(C2)C1N (centres undefined),> 100 µM,> 100 µM,> 100 µM,> 100 µM,,> 100 µM,> 100 µM,> 100 µM,> 100 µM,> 100 µM,> 100 µM,> 100 µM,> 100 µM,> 100 µM,> 100 µM,> 100 µM
CC(=O)/C(C=Nc1c(C)n(C)n(C)c1=O)=C(/O)c1ccccc1,> 50 µM,> 50 µM,> 50 µM,> 50 µM,> 50 µM,> 50 µM,> 50 µM,> 50 µM,> 50 µM,> 50 µM,> 50 µM,> 50 µM,> 50 µM,> 50 µM,> 50 µM,> 50 µM
COC(=O)C1=NN2c3ccccc3CN([C@@H](C)c3ccccc3)C(=O)[C@@H]2[C@H]1c1ccccc1,> 100 µM,> 100 µM,> 100 µM,> 100 µM,> 100 µM,> 100 µM,> 100 µM,> 100 µM,> 100 µM,> 100 µM,> 100 µM,> 100 µM,> 100 µM,> 100 µM,> 100 µM,> 100 µM
O=C1C(S(=O)(=O)c2ccccc2)=C(CS(=O)(=O)c2ccccc2)[C@@H](OCc2ccccc2)[C@@H]1OCc1ccccc1,32.9 µM,57.3 µM,> 100 µM,37.3 µM,35.9 µM,> 100 µM,> 100 µM,44 µM,32.7 µM,32.1 µM,> 100 µM,66.3 µM,27.5 µM,61.3 µM,33.5 µM,> 100 µM
COc1cccc(-c2c(-c3ccccc3)[nH]c(C)c2C(=O)ONC(=O)c2ccccc2)c1,3.91 µM,28.5 µM,11.8 µM,30.7 µM,14.2 µM,22.1 µM,15.5 µM,26.1 µM,4.65 µM,20 µM,24 µM,26.6 µM,22.8 µM,32.6 µM,23.6 µM,11.3 µM
C=CC1(C)OC2(CCN(C(=O)OCC)CC2)OC1C (centres undefined),> 100 µM,> 100 µM,> 100 µM,> 100 µM,> 100 µM,> 100 µM,> 100 µM,> 100 µM,> 100 µM,> 100 µM,> 100 µM,> 100 µM,> 100 µM,> 100 µM,> 100 µM,> 100 µM
CC1=NN(c2nc(N)nc(/C(C#N)=C\c3cccc([N+](=O)[O-])c3)n2)C(C)(C)C1,36.3 µM,> 37 µM,50.8 µM,> 42.7 µM,,58.8 µM,32 µM,> 47.6 µM,> 100 µM,> 48.9 µM,> 23 µM,49.3 µM,26.9 µM,> 48 µM,> 29.9 µM,> 94.1 µM
O=C(C/C=C/c1ccccc1)c1ccccc1,30.3 µM,36 µM,31 µM,66.6 µM,34.1 µM,65.6 µM,48.8 µM,37 µM,> 100 µM,32.2 µM,32.7 µM,72.1 µM,> 100 µM,56.6 µM,,31.7 µM
CC1=CCC2CC1NC(=O)CCOCCC(=O)NC2(C)C (centres undefined),> 100 µM,> 100 µM,> 100 µM,> 100 µM,> 100 µM,> 100 µM,> 100 µM,> 100 µM,> 100 µM,> 100 µM,> 100 µM,> 100 µM,,> 100 µM,> 100 µM,> 100 µM
Cc1nnc(Sc2nc(C#N)c(C#N)nc2Sc2nnc(C)s2)s1,9.18 µM,53.3 µM,36.6 µM,64.1 µM,,41.4 µM,28.6 µM,7.42 µM,7.65 µM,62.9 µM,25.3 µM,62 µM,25.3 µM,> 53.3 µM,44.7 µM,
NC(=O)C(=CNC(=S)Nc1cccc(C(F)(F)F)c1)C(N)=O,> 100 µM,> 100 µM,> 100 µM,> 100 µM,,> 100 µM,> 100 µM,,> 100 µM,> 100 µM,> 100 µM,> 100 µM,> 100 µM,> 100 µM,> 100 µM,> 100 µM
COC1/C=C/C(C)C(C(C)C(OC)C(C)CCC(=O)C(C)C(CC(=O)O)OC)OC(=O)/C=C/C=C(\C)CC(OC)CC2=CC(=O)O[C@H](C2)C(C)C(OC)CC(OC)/C=C/C(C)C(OC)C1 (some centres undefined),,2.17 µM,> 4.35 µM,2.26 µM,1.82 µM,1.66 µM,> 4.35 µM,> 4.35 µM,1.32 µM,> 4.35 µM,> 4.35 µM,> 4.35 µM,> 4.35 µM,> 4.35 µM,> 4.35 µM,0.851 µM
